Experimental data taken from patent publication EP4707277A1, “NOVEL HETEROCYCLIC AMINE DERIVATIVES AND PHARMACEUTICAL COMPOSITION COMPRISING SAME” (Daewoong Pharmaceutical Co., Ltd., priority 2023, dated 2024).
Where two headings read alike, the source gives them in different places.

Assays:
ITK = target: T1, ITK (Homo sapiens, UniProt Q08881); experiment: Inhibitory activity against ITK, ADP-Glo Kinase system (Promega); type: biochemical
T1 construct: purchased Signalchem I13-11G-10
T1 sequence (Q08881 1-620): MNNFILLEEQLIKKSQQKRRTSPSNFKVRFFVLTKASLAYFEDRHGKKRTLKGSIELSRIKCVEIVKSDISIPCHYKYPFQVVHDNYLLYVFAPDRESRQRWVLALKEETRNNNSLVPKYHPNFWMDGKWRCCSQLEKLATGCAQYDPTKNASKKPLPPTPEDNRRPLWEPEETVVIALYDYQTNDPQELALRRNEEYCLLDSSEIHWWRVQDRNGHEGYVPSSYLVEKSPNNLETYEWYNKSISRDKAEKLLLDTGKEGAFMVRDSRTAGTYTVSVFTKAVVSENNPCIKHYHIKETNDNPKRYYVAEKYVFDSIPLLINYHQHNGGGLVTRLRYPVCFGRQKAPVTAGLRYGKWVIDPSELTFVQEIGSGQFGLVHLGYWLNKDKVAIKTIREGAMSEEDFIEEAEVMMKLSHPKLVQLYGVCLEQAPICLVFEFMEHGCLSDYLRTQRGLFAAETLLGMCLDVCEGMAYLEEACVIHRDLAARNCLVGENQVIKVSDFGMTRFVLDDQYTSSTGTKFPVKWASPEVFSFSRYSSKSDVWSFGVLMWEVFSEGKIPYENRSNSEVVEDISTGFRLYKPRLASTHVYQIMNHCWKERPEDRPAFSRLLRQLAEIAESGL
How it was run: (§1)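 ADP-Glo luminescent ADP detection with recombinant human ITK (4 ng/reaction) or BTK (10 ng/reaction) and poly(Glu4,Tyr1) substrate at 0.2 µg/µl. Buffer: Tris pH 7.5, MgCl2, MnCl2, BSA, DTT. ATP 1 mM or Km (BTK 10 µM, ITK 25 µM); 1% DMSO; 1 h at 30°C; IC50 from curve fit.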

BTK = target: T2, BTK (Homo sapiens, UniProt Q06187); experiment: Inhibitory activity against BTK, ADP-Glo Kinase system (Promega); type: biochemical
T2 construct: purchased Signalchem B10-10H
T2 sequence (Q06187 whole entry): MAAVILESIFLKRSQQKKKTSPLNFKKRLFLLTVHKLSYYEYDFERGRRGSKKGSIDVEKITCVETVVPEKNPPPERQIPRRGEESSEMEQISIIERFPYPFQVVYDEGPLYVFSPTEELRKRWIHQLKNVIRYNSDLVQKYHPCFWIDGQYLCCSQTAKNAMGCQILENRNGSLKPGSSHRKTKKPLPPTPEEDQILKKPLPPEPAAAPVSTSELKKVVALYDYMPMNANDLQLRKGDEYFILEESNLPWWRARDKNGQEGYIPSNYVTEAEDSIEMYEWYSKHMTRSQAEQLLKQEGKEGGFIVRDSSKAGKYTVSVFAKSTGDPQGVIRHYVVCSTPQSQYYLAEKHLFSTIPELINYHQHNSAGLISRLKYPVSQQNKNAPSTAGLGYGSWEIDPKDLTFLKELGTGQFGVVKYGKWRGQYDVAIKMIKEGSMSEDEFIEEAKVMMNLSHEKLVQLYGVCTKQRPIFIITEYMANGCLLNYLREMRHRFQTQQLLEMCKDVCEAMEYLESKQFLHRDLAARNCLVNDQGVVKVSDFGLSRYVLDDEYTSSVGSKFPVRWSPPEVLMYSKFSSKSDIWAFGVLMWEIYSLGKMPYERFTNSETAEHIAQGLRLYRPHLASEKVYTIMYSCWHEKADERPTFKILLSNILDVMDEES
How it was run: as §1

[1] = 1mM ATP, read-out: ITK IC50(nM) 1mM ATP
[2] = 1mM ATP, read-out: BTK IC50(nM) 1mM ATP
[3] = Km ATP (ITK: 25uM), read-out: ITK IC50(nM) Km ATP
[4] = Km ATP (BTK: 10 uM), read-out: BTK IC50(nM) Km ATP

IC50 (ITK; [1]) [nM]	IC50 (BTK; [2]) [nM]	IC50 (ITK; [3]) [nM]	IC50 (BTK; [4]) [nM]	SMILES
≤ 20	≤ 20			C=CC(=O)N1C2C=C(c3nc(Nc4ncc(C)s4)cc4c3ccn4CC3(C(F)(F)F)CC3)CC1CC2 (stereo not shown) [Example 30, 1-(3-(6-((5-methylthiazol-2-yl)amino)-1-((1-(trifluoromethyl)cyclopropyl)methyl)-1H-pyrrolo[3,2-c]pyridin-4-yl)-8-azabicyclo[3.2.1]oct-2-en-8-yl)prop-2-en-1-one]
≤ 20	≤ 20			C=CC(=O)N1CC(C)(Oc2nc(Nc3ncc(C)s3)cc3c2ccn3C)C1 [Example 166, 1-(3-methyl-3-((1-methyl-6-((5-methylthiazol-2-yl)amino)-1H-pyrrolo[3,2-c]pyridin-4-yl)oxy)azetidin-1-yl)prop-2-en-1-one]
≤ 20	≤ 20			C=CC(=O)N1CCC12CC(Oc1nc(Nc3ncc(C)s3)cc3c1ccn3CC(C)C)C2 (stereo not shown) [Example 137, 1-(6-((1-isobutyl-6-((5-methylthiazol-2-yl)amino)-1H-pyrrolo[3,2-c]pyridin-4-yl)oxy)-1-azaspiro[3.3]heptan-1-yl)prop-2-en-1-one]
≤ 20	≤ 20			C=CC(=O)Nc1cccc(-c2nc(Nc3ncc(C)s3)cc3c2ccn3C(C)C)c1C [Example 58, N-(3-(1-isopropyl-6-((5-methylthiazol-2-yl)amino)-1H-pyrrolo[3,2-c]pyridin-4-yl)-2-methylphenyl)acrylamide]
≤ 20	≤ 20			C=CC(=O)N1C[C@@H](C)[C@H](Oc2nc(Nc3ncc(C)s3)cc3c2ccn3C(C)C)C1 (racemic) [Example 92, rac-1-((3S,4R)-3-((1-isopropyl-6-((5-methylthiazol-2-yl)amino)-1H-pyrrolo[3,2-c]pyridin-4-yl)oxy)-4-methylpyrrolidin-1-yl)prop-2-en-1-one]
≤ 20	≤ 20			C=CC(=O)N1CC(C)(Oc2nc(Nc3ncc(C)s3)cc3c2ccn3C(C)C)C1 [Example 163, 1-(3-((1-isopropyl-6-((5-methylthiazol-2-yl)amino)-1H-pyrrolo[3,2-c]pyridin-4-yl)oxy)-3-methylazetidin-1-yl)prop-2-en-1-one]
100 to 500	20 to 100	≤ 20	≤ 20	C=CC(=O)Nc1ccc(F)c(-c2nc(Nc3ncc(C)s3)cc3c2ccn3CC(F)F)c1 [Example 75, N-(3-(1-(2,2-difluoroethyl)-6-((5-methylthiazol-2-yl)amino)-1H-pyrrolo[3,2-c]pyridin-4-yl)-4-fluorophenyl)acrylamide]
≤ 20	≤ 20			C=CC(=O)N1CC(Oc2nc(Nc3ncc(C)s3)cc3c2ccn3CC2CC2)C1 [Example 145, 1-(3-((1-(cyclopropylmethyl)-6-((5-methylthiazol-2-yl)amino)-1H-pyrrolo[3,2-c]pyridin-4-yl)oxy)azetidin-1-yl)prop-2-en-1-one]
≤ 20	≤ 20			C=CC(=O)N1CC(Oc2nc(Nc3ncc(C)s3)cc3c2ccn3CCOC)C1 [Example 146, 1-(3-((1-(2-methoxyethyl)-6-((5-methylthiazol-2-yl)amino)-1H-pyrrolo[3,2-c]pyridin-4-yl)oxy)azetidin-1-yl)prop-2-en-1-one]
> 500	> 500			C=CC(=O)N1C[C@H](F)[C@H](Oc2nc(Nc3ccn(C)n3)cc3c2ccn3CC(C)C)C1 [Example 197, 1-((3S,4R)-3-fluoro-4-((1-isobutyl-6-((1-methyl-1H-pyrazol-3-yl)amino)-1H-pyrrolo[3,2-c]pyridin-4-yl)oxy)pyrrolidin-1-yl)prop-2-en-1-one]
> 500	> 500			C=CC(=O)N1CC[C@@H](Oc2nc(Nc3ncc(C)s3)cc3c2ccn3C2CCCC2)C1 [Example 143, (R)-1-(3-((1-cyclopentyl-6-((5-methylthiazol-2-yl)amino)-1H-pyrrolo[3,2-c]pyridin-4-yl)oxy)pyrrolidin-1-yl)prop-2-en-1-one]
≤ 20	≤ 20			C=CC(=O)N1C[C@H](F)[C@H](Oc2nc(Nc3ncc(C)s3)cc3c2ccn3CCCF)C1 [Example 191, 1-((3S,4R)-3-fluoro-4-((1-(3-fluoropropyl)-6-((5-methylthiazol-2-yl)amino)-1H-pyrrolo[3,2-c]pyridin-4-yl)oxy)pyrrolidin-1-yl)prop-2-en-1-one]
≤ 20	≤ 20			C=CC(=O)N1C[C@@H](Oc2nc(Nc3ncc(C)s3)cc3c2ccn3C(C)C)C[C@H]1C [Example 87, 1-((2R,4S)-4-((1-isopropyl-6-((5-methylthiazol-2-yl)amino)-1H-pyrrolo[3,2-c]pyridin-4-yl)oxy)-2-methylpyrrolidin-1-yl)prop-2-en-1-one]
≤ 20	≤ 20			C=CC(=O)N1CC[C@@H]1COc1nc(Nc2ncc(C)s2)cc2c1ccn2CC(F)F [Example 209, (R)-1-(2-(((1-(2,2-difluoroethyl)-6-((5-methylthiazol-2-yl)amino)-1H-pyrrolo[3,2-c]pyridin-4-yl)oxy)methyl)azetidin-1-yl)prop-2-en-1-one]
≤ 20	≤ 20			C=CC(=O)N1C2C=C(c3nc(Nc4ncc(C)s4)cc4c3ccn4C(C)C)CC1CCC2 (stereo not shown) [Example 37, 1-(3-(1-isopropyl-6-((5-methylthiazol-2-yl)amino)-1H-pyrrolo[3,2-c]pyridin-4-yl)-9-azabicyclo[3.3.1]non-2-en-9-yl)prop-2-en-1-one]
		≤ 20	≤ 20	C=CC(=O)Nc1cc(-c2nc(Nc3ncc(C)s3)cc3c2ccn3CC2CCOC2)ccc1F (stereo not shown) [Example 72, N-(2-fluoro-5-(6-((5-methylthiazol-2-yl)amino)-1-((tetrahydrofuran-3-yl)methyl)-1H-pyrrolo[3,2-c]pyridin-4-yl)phenyl)acrylamide]
≤ 20	≤ 20			C=CC(=O)N1CC(C)(Oc2nc(Nc3ncc(C)s3)cc3c2ccn3CC2CC2)C1 [Example 167, 1-(3-((1-(cyclopropylmethyl)-6-((5-methylthiazol-2-yl)amino)-1H-pyrrolo[3,2-c]pyridin-4-yl)oxy)-3-methylazetidin-1-yl)prop-2-en-1-one]
		≤ 20	≤ 20	C=CC(=O)N1C2C=C(c3nc(Nc4ncc(C)s4)cc4c3ccn4C3CC3(F)F)CC1CC2 (stereo not shown) [Example 31, 1-(3-(1-(2,2-difluorocyclopropyl)-6-((5-methylthiazol-2-yl)amino)-1H-pyrrolo[3,2-c]pyridin-4-yl)-8-azabicyclo[3.2.1]oct-2-en-8-yl)prop-2-en-1-one]
20 to 100	≤ 20	≤ 20	≤ 20	C=CC(=O)Nc1cc(-c2nc(Nc3ncc(C)s3)cc3c2ccn3CC(C)C)c(F)cc1F [Example 67, N-(2,4-difluoro-5-(1-isobutyl-6-((5-methylthiazol-2-yl)amino)-1H-pyrrolo[3,2-c]pyridin-4-yl)phenyl)acrylamide]
20 to 100	≤ 20			C=CC(=O)N1CCC[C@H]1COc1nc(Nc2ncc(C)s2)cc2c1ccn2C1CCCC1 [Example 222, (S)-1-(2-(((1-cyclopentyl-6-((5-methylthiazol-2-yl)amino)-1H-pyrrolo[3,2-c]pyridin-4-yl)oxy)methyl)pyrrolidin-1-yl)prop-2-en-1-one]
20 to 100	20 to 100			C=CC(=O)N1CC=C(c2nc(Nc3cc(C(F)(F)F)ccn3)cc3c2ccn3C(C)C)CC1 [Example 48, 1-(4-(1-isopropyl-6-((4-(trifluoromethyl)pyridin-2-yl)amino)-1H-pyrrolo[3,2-c]pyridin-4-yl)-3,6-dihydropyridin-1(2H)-yl)prop-2-en-1-one]
≤ 20	≤ 20			C=CC(=O)N1CC[C@H](Oc2nc(Nc3ncc(C)s3)cc3c2ccn3CC(C)C)C1 [Example 81, (S)-1-(3-((1-isobutyl-6-((5-methylthiazol-2-yl)amino)-1H-pyrrolo[3,2-c]pyridin-4-yl)oxy)pyrrolidin-1-yl)prop-2-en-1-one]
		≤ 20	≤ 20	C=CC(=O)N1C[C@@H](F)[C@H](Oc2nc(Nc3ncc(C)s3)cc3c2ccn3CCC(C)C)C1 [Example 115, 1-((3R,4R)-3-fluoro-4-((1-isopentyl-6-((5-methylthiazol-2-yl)amino)-1H-pyrrolo[3,2-c]pyridin-4-yl)oxy)pyrrolidin-1-yl)prop-2-en-1-one]
20 to 100	100 to 500			C=CC(=O)Nc1cc(-c2nc(Nc3ncc(C)s3)cc3c2ccn3CCC(C)(C)C)c(F)cc1F [Example 69, N-(5-(1-(3,3-dimethylbutyl)-6-((5-methylthiazol-2-yl)amino)-1H-pyrrolo[3,2-c]pyridin-4-yl)-2,4-difluorophenyl)acrylamide]
